Drawing on BindingDB's records for doi:10.7270/Q2N58JS6 (University of Pittsburgh, 2007), this text covers EC50 for 19 compounds.

A word on the EC50: it is the concentration at which the effect is half-maximal. The low end stands for greater potency, the high end for weaker potency.

The target in the test is Serine/threonine-protein kinase PLK1 (Homo sapiens, UniProt P53350). The test can be described thus: H2O2 production by redox-active compounds – biochemical, 1 mM DTT, artefact control for Plk1 PBD inhibitor project, dose response (AID 936).
Serine/threonine-protein kinase PLK1, sequence (P53350 whole entry): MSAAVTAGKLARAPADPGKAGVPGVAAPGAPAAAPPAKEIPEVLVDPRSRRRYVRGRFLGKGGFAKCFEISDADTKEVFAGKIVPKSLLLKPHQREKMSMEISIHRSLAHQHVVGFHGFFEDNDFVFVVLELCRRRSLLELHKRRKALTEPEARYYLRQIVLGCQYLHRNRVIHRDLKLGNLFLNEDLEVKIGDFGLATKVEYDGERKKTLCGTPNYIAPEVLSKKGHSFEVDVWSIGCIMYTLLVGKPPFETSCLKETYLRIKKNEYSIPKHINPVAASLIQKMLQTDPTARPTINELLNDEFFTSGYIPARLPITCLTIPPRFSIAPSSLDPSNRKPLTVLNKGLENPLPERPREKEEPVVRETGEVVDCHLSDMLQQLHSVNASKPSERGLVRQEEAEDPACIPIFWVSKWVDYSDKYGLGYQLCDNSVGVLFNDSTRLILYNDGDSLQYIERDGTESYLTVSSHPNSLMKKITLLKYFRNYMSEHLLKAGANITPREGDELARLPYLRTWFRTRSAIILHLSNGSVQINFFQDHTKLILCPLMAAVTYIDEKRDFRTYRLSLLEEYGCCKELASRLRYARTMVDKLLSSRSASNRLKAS
Compound `CC(C)Sc1nc(N2CCOCC2)c2c(c1C#N)CC(C)(C)N(C)C2` [3-(isopropylthio)-6,6,7-trimethyl-1-morpholino-5,8-dihydro-2,7-naphthyridine-4-carbonitrile] registered an EC50 of more than 50 µM.
For `O=C1CCC(C(=O)O)(c2ccccc2)C1` (centres undefined) [3-Oxo-1-phenyl-cyclopentanecarboxylic acid] the value was more than 50 µM; for `Cc1ccc2cc(C(c3nnnn3C3CCCC3)N3CCN(c4ccccc4)CC3)c(=O)[nH]c2c1` (centres undefined) [3-[(1-cyclopentyltetrazol-5-yl)-(4-phenylpiperazin-1-yl)methyl]-7-methyl-1H-quinolin-2-one], more than 50 µM; for `CC1CCCC(NC2CCCCNC2=O)C1` (centres undefined) [3-[(3-methylcyclohexyl)amino]-2-azepanone], more than 50 µM.
As to `Cc1nc2cccc(C)n2c(=O)c1Cl` [3-chloranyl-2,6-dimethyl-pyrido[1,2-a]pyrimidin-4-one], the EC50 is more than 50 µM.
Under `CCn1cnc2sc(C(=O)N3CCN(c4ccc(OC)cc4)CC3)c(C)c2c1=O` [3-ethyl-6-[4-(4-methoxyphenyl)piperazin-1-yl]carbonyl-5-methyl-thieno[2,3-d]pyrimidin-4-one] stands more than 50 µM; under `O=C1Nc2ccc([N+](=O)[O-])cc2C1(O)N1CCCCC1` (centres undefined) [3-hydroxy-5-nitro-3-(1-piperidinyl)-1,3-dihydro-2H-indol-2-one], more than 50 µM; under `CC1CN(C2CC(C)(C)NC(C)(C)C2)CCC1=O` (centres undefined) [3-methyl-1-(2,2,6,6-tetramethyl-4-piperidinyl)-4-piperidinone], more than 50 µM.
For the compound `O=C(NC(NC(=S)Nc1ccc(Cl)cc1Cl)C(Cl)(Cl)Cl)c1cccc([N+](=O)[O-])c1` (centres undefined) [3-nitro-N-[2,2,2-trichloro-1-({[(2,4-dichlorophenyl)amino]carbonothioyl}amino)ethyl]benzamide], the EC50 came out at 28.2 µM.
Consider `Cc1cccc(C)c1NC1=NC(=S)N(c2ccccc2)C12CCOC(C)(C)C2` (centres undefined) [4-(2,6-dimethylanilino)-7,7-dimethyl-1-phenyl-8-oxa-1,3-diazaspiro[4.5]dec-3-ene-2-thione], for which the EC50 was more than 50 µM.
On to `Cc1ccccc1Oc1ncnc2oc(-c3ccccc3)cc12` [4-(2-methylphenoxy)-6-phenyl-furo[2,3-d]pyrimidine], for which the EC50 is more than 50 µM.
Under `Cc1ccc(C(=O)c2c[nH]c(C(=O)NCCCN3CCOCC3)c2)cc1` [4-(4-methylbenzoyl)-N-(3-morpholin-4-ylpropyl)-1H-pyrrole-2-carboxamide] stands more than 50 µM; under `CN(C)c1ccc(C(=O)Nc2nc3c(s2)CCCC3)cc1` [4-(dimethylamino)-N-(4,5,6,7-tetrahydro-1,3-benzothiazol-2-yl)benzamide], more than 50 µM; under `O=C(CN1C(=O)COc2ccccc21)NCc1ccc(C(=O)O)cc1` [4-[[2-(3-oxidanylidene-1,4-benzoxazin-4-yl)ethanoylamino]methyl]benzoic acid], more than 50 µM.
Under `CCCc1nc2sc3c(c2c(=O)n1NC(=O)CCC(=O)O)CCCC3` [4-keto-4-[(4-keto-2-propyl-5,6,7,8-tetrahydrobenzothiopheno[2,3-d]pyrimidin-3-yl)amino]butyric acid] stands more than 50 µM.
For `Cc1ccc(C(=O)Nc2cnc3sc(C)nn3c2=O)cc1` [4-methyl-N-(2-methyl-5-oxidanylidene-[1,3,4]thiadiazolo[3,2-a]pyrimidin-6-yl)benzamide] the value was more than 50 µM.
Take `CC1(C)CC(=O)C=C(NCc2ccncc2)C1` [5,5-dimethyl-3-(4-pyridylmethylamino)cyclohex-2-en-1-one]: the EC50 is more than 50 µM.
For `CC(C)(C)NC(=O)CC(CC(=O)O)c1ccccc1` (centres undefined) [5-(tert-butylamino)-5-keto-3-phenyl-valeric acid] the value was more than 50 µM; for `C=CCn1c2ccccc2c2nnc(SCc3ccc4nonc4c3)nc21` [5-[(5-prop-2-enyl-[1,2,4]triazino[5,6-b]indol-3-yl)sulfanylmethyl]-2,1,3-benzoxadiazole], more than 50 µM.
